In patent publication EP0294746A1, “Bicyclic nitro compounds” (L. GIVAUDAN & CIE Société Anonyme, priority 1987, dated 1988):

Key:
[1] = Odour description (olfactory evaluation); settings: odour note in words
[2] = Odour threshold and odour value determination; settings: definition per Huber, Seifen-Oele-Fette-Wachse 110 (1984) 448-451
Method: Die Verbindungen der Formel I eignen sich aufgrund ihrer natürlichen Geruchsnoten insbesondere zur Modifizierung von bekannten Kompositionen. Hervorgehoben werden soll insbesondere ihre ausserordentliche Geruchsstärke: Der Geruchsschwellenwert beträgt 0,29 bzw. 0,57 ng/l, der Geruchswert 2983 bzw. 2139. Bezüglich Definition von Geruchswert und Geruchsschwellenwert siehe z.B. Ulrich A. Huber, Seifen - -Oele - Fette - Wachse 110, Nr. 15 (1984) 448-451.

Structure (SMILES)	Geruch [1]	Geruchsschwellenwert [2]
CCc1cc2c(cc1[N+](=O)[O-])C(C)(C)CCC2(C)C [Beispiel 1, 6-Nitro-7-äthyl-1,1,4,4-tetramethyl-1,2,3,4-tetrahydronaphthalin]	Moschus-artig, süss, pudrig	0,57 ng/l
CCc1cc2c(cc1[N+](=O)[O-])C(C)(C)C(C)C2(C)C (stereo not shown) [Beispiel 2, 5-Nitro-6-äthyl-1,1,2,3,3-pentamethylindan]	moschus-artig	0,29 ng/l
